According to patent US11419335B2, “N-arylated analogues and uses thereof” (University of Florida Research Foundation, Incorporated, priority 2016, dated 2022):
Marks after values point to notes of the source that are not given here.

Columns and labels:
C. albicans SC5314 [1] = test: Fungal MIC susceptibility assay, C. albicans; assay type: cell-based, Candida albicans; conditions: for C. albicans SC5314 MIC: Table 2B
Experimental: (§1) Fungal minimum inhibition concentrations (MICs) were determined using standard microdilution methods according to the Clinical and Laboratory Standards Institute document M27-A3. The test compound concentration ranged from 0.01 to 100 μM. Amphotericin B (AmB) and itraconazole (ITC) (Fisher Scientific) were included as positive controls. DMSO, the vehicle control, was used at ≤1% v/v for these experiments. The fungal M27-A3 standard MIC assay protocol requires the following inoculum preparation protocol: The organisms were cultured onto PDA medium at 35° C. The inoculum is prepared by picking five colonies from 24-hour old culture of Candida spp. or 48-hour old culture of C. neoformans. The inoculum was suspended in 5 ml of sterile water, the resulting suspension was vortexed for 15 seconds and the cell density adjusted (by adding more sterile water) to an OD530=0.30, which yields a suspension of 1×10^6 to 5×10^6 cells per mL. The suspension was diluted 50 times and then 20 times using RPMI 1640 medium to obtain the two times test inoculum (1×10^3 to 5×10^3 cells per mL). The following steps are the same with the standard bacterial MIC protocol using 96-well plates. NOTE: RPMI 1640 medium was used in the fungal MIC assay (for both cell inoculum and compound dilution).

C. neoformans ATCC 66031 = test: Fungal MIC susceptibility assay, C. neoformans; assay type: cell-based; conditions: for C. neoformans 66031 MIC: Table 2B
Experimental: as §1

C. albicans SC5314 [2] = test: Minimum fungicidal concentration assay, C. albicans; assay type: cell-based, Candida albicans; conditions: Table 2B
[3] = test system: C. albicans SC5314 biofilms; test: MTT assay for fungal biofilm eradication (MBEC), C. albicans; assay type: cell-based, Candida albicans; conditions: Table 2B, 90% eradicated biofilm
Experimental: One colony was picked from a 24-hour old culture of Candida spp. or 48-hour old culture of C. neoformans and added to YPD liquid medium for inoculation and cultured at 37° C. overnight. Cells were then washed with PBS (Phosphate-buffered saline (10 mM potassium phosphate, 150 mM NaCl, pH 7.0)) and standardized to OD600=1.0. Microtiter wells were then treated with 50% FCS (Fetal calf serum) in PBS for at least 30 min at room temperature (FCS pre-treatment is not absolutely required for Candida spp.). The FCS was aspirated and microtiter wells were rinsed once with 200 μL PBS before 100 μL of the cell suspension was added to each microtiter well. The plate was then incubated statically at 37° C. for 2 hours. Non-adherent cells were then removed by aspiration and microtiter wells were washed with PBS twice to remove loosely associated cells.
The resulting cell culture was aspirated and wells were rinsed once with 200 μL PBS. Controls and compounds were diluted in YNB medium (200 μL) were added to microtiter wells.
Following incubation, the culture was aspirated and wells are rinsed twice with 200 μL PBS before 100 μL of MTT (0.5 mg/mL dissolved in PBS containing 1% glucose) was added to each microtiter well. The plate was then incubated at 37° C. for 30 min, or longer, until dark blue/black crystals formation could be observed (usually 2 hours at most). The MTT reaction was terminated by aspiration of the solution. The crystals were then solubilized by adding 100 μL of 40% acetic acid to the microtiter wells. Killing efficacies were monitored by eye or quantitatively measured using a plate reader (absorbance at 550 nm). MBEC values were determined as the lowest compound concentration leading to 90% eradicated biofilm. All MBEC values using the MTT assay were recorded from at least three independent experiments.

MRSA BAA-1707 biofilms = test: Calgary Biofilm Device assay (MBC/MBEC), MRSA BAA-1707; assay type: cell-based, Staphylococcus aureus
Experimental: (§2) The lid of the Calgary device was then removed, washed and transferred to another 96-well plate containing 2-fold serial dilutions of the test compounds (the “challenge plate”). The total volume of media with compound in each well in the challenge plate is 150 μL. […] The lid was then removed from the challenge plate and MBC/MBEC values were determined using different final assays. […] The MBC values were determined as the concentration giving a lack of visible bacterial growth (i.e., turbidity). […] In select experiments, pegs from the Calgary device were removed from lead biofilm eradicators after final incubation, sonicated for 30 minutes in PBS and plated out to determine biofilm cell killing of lead biofilm-eradicating agents (i.e., colony forming unit per milliliter, CFU/mL).
(§3) Using a Calgary Biofilm Device, bacterial biofilms are established on pegs suspended to the bottom of a 96-well plate lid. Following biofilm establishment on lid pegs, lids are then transferred to new 96-well plates containing serial dilutions of test compound and allowed to incubate. After compound treatment, 96-well plate lids with pegs are once again transferred to 96-well plates containing fresh media. During this final phase of the assay, viable biofilms will grow and disperse planktonic cells into the media where they will grow and give a turbid well result. Conversely, wells that have no growth are a result of pegs that had eradicated bacterial biofilms. The lowest concentration at which no turbidity is observed is the minimum biofilm eradication concentration (MBEC). Using the Calgary Biofilm Device, both minimum biofilm eradication concentrations and minimum bactericidal concentrations (MBC) for planktonic bacterial can be determined using one assay from a single bacterial culture (FIG. 3A).

MRSE ATCC 35984 biofilms = test: Calgary Biofilm Device assay (MBC/MBEC), MRSE 35984; assay type: cell-based, Staphylococcus epidermidis
Experimental: as §2, §3

VRE ATCC 700221 biofilms = test: Calgary Biofilm Device assay (MBC/MBEC), VRE 700221; assay type: cell-based, Enterococcus faecium; conditions: for VRE MBC / VRE MBEC: Table 2A; for VRE 700221 MBEC: biofilm
Experimental: as §2, §3

MRSA-2 biofilms = test: Calgary Biofilm Device assay (MBC/MBEC), MRSA-2; assay type: cell-based, Staphylococcus aureus; conditions: Table 2A; CBD assay
Experimental: as §2, §3

[4] = Table 2, CBD assay, planktonic cells

| Structure (SMILES) | C. albicans SC5314 MIC (C. albicans SC5314 [1]) [µM] | MIC C. albicans SC5314 (C. albicans SC5314 [1]; Table 4, antifungal) [µM] | C. neoformans 66031 MIC (C. neoformans ATCC 66031) [µM] | MIC C. neof 66031 (C. neoformans ATCC 66031; Table 4, antifungal) [µM] | C. albicans SC5314 MBC (C. albicans SC5314 [2]) [µM] | C. albicans SC5314 MBEC [3] | MRSA BAA-1707 MBC (MRSA BAA-1707 biofilms; Table 2A, CBD assay) | MRSA BAA-1707 MBEC (MRSA BAA-1707 biofilms; Table 2A, CBD assay) | MRSE 35984 MBC (MRSE ATCC 35984 biofilms; Table 2A, CBD assay) | MRSE 35984 MBEC (MRSE ATCC 35984 biofilms; Table 2A, CBD assay) | VRE MBC (VRE ATCC 700221 biofilms; CBD assay) | VRE MBEC (VRE ATCC 700221 biofilms; CBD assay) | MRSA-2 MBC (MRSA-2 biofilms) | MRSA-2 MBEC (MRSA-2 biofilms) | other results |
| --- | --- | --- | --- | --- | --- | --- | --- | --- | --- | --- | --- | --- | --- | --- | --- |
| CCCCCCCCCCCCCCCC[N+](C)(C)Cc1ccccc1.[Cl-] [BAC-16, reference compound] | 3.13 | 3.13 | 3.12 | 6.25 | 6.25 | 15.63 | – | – | – | – | – | – | – | – | – |
| CCCCCCCCCCCCCCCCn1cc[n+](C)c1C.[I-] [Compound 8] | 3.13 | 3.13 | 1.56 | 6.25 | 6.25 | 15.63 | 11.7^a/ μM | 31.3 µM | 3.0^a/ μM | 3.0^a μM | 3.9/3.9 μM | 3.9/3.9 μM | 11.7 µM | 23.5 µM | – |
| CCCCCCCCCCCCCCCCn1cc[n+](CCO)c1C.[Br-] [Compound 11] | 3.13 | 3.13 | 1.56 | 6.25 | 6.25 | 7.82 | 23.5^a/ μM | 46.9^a μM | 3.9/3.9 μM | 3.9/3.9 μM | 3.0^a/ μM | 3.9 µM | 11.7 µM | 31.3 µM | – |
| CCCCCCCCCCCCCCCCn1cc[n+](Cc2cccc(F)c2)c1C.[Br-] [Compound 18] | – | – | – | – | – | – | – | – | 11.7^a/ μM | 11.7^a μM | 5.85^a/ μM | 11.7^a μM | 93.8^a/93.8^a μM | 93.8^a/93.8^a μM | – |
| CCCCCCCCCCCCCCCCn1cc(-c2ccccc2)[n+](C)n1.[I-] [Compound 30] | – | – | – | – | – | – | 11.7^a/ μM | 23.5^a μM | – | – | – | – | 31.3^b/31.3 μM | 31.3^b/31.3 μM | – |
| CCCCCCCCCCCCCCCCn1cc[n+](Cc2ccccc2)c1C [NH125, 3-benzyl-1-hexadecyl-2-methyl-1H-imidazol-3-ium bromide, reference compound] | – | – | – | – | – | – | – | – | – | – | – | – | – | – | minimum biofilm eradication concentration (MBEC), MRSA BAA-1707 biofilms (MRSA BAA-1707 biofilms): 46.9 µM; MBC (MRSA BAA-1707 biofilms; Staphylococcus aureus, Table 2, CBD assay, planktonic cells): 23.5 µM; MRSA BAA-1707 MBEC (MRSA BAA-1707 biofilms; Table 2, CBD assay, biofilm): 46.9 µM; reduction of viable biofilm cells (MRSA BAA-1707 biofilms; at 62.5, colony counts of CBD pegs, MRSA BAA-1707): 3 to 4 log; MBC (MRSE ATCC 35984 biofilms; Staphylococcus epidermidis, Table 2, CBD assay, planktonic cells): 15.6 µM; MRSE 35984 MBEC (MRSE ATCC 35984 biofilms; Table 2, CBD assay, biofilm): 5.9 µM; MBC (VRE ATCC 700221 biofilms; Enterococcus, Table 2, CBD assay, planktonic cells): 59 µM; VRE 700221 MBEC (VRE ATCC 700221 biofilms; Table 2, CBD assay): 11.7 µM; MIC (C. albicans SC5314 [1]; Candida albicans, SC5314, Table 4, antifungal): 3.13 µM; MIC (C. neoformans ATCC 66031; Cryptococcus neoformans, ATCC66031, Table 4, antifungal, read-out: MIC C. neof 66031): 3.13 µM |
| CCCCCCCCCCCC[N+](C)(C)CC[N+](C)(C)CC[N+](C)(C)CCCCCCCCCCCC [QAC-10, reference compound] | – | – | – | – | – | – | 93.8^a/ μM | 93.8^a μM | 31.3 µM⁻¹ | 31.3 µM | 3.0^a/ μM | 3.0^a μM | 31.3 µM | 125 µM | MRSA BAA-1707 MBEC (MRSA BAA-1707 biofilms; Table 2, CBD assay, biofilm): 93.8^a/93.8^a μM; MRSA BAA-1707 MBC (MRSA BAA-1707 biofilms; [4]): 93.8^a/93.8^a μM; MBEC, MRSE biofilms (MRSE ATCC 35984 biofilms; MRSE ATCC 35984): 31.3 µM; MRSE 35984 MBEC (MRSE ATCC 35984 biofilms; Table 2, CBD assay, biofilm): 31.3/31.3 μM; MRSE 35984 MBC (MRSE ATCC 35984 biofilms; [4]): 31.3/31.3 μM; MBEC, VRE biofilms (VRE ATCC 700221 biofilms): 3.0 µM; VRE 700221 MBEC (VRE ATCC 700221 biofilms; Table 2, CBD assay): 3.0^a/3.0^a μM; VRE 700221 MBC (VRE ATCC 700221 biofilms; [4]): 3.0^a/3.0^a μM |
